Results on 1 compound are retold here after patent publication US10457639B2, “Fluorescent regulators of RASSF1A expression and human cancer cell proliferation” (GEORGETOWN UNIVERSITY, priority 2008, dated 2019).

One data set deals with wild-type Balb/c mice. The data set is described as follows: Acute oral toxicity up-and-down procedure. Format: in vivo. As to the method: Animals. Balb/c mice and athymic Balb/c nude mice were purchased from the National Cancer Institute (NCI). Animals were housed 4-6 per cage with microisolater tops and provided food (Furina mice chow) and water ad libitum. The light cycle was regulated automatically (12 hours light/dark cycle) and temperature was maintained at 23±1° C. All animals were allowed to acclimate to this environment for one week prior to experimental manipulations. The Georgetown University Animal Care and Use Committee approved all animal studies in accordance with the guidelines adopted by the National Institute of Health.
This provided an ample therapeutic index of >55 at a starting efficacy dose of 10 mg/kg. Athymic Balb/c nude mice with human prostate tumor xenografts were dosed via intraperitoneal injection with 10 mg/kg of compound 6a once a day every other day for 25 days. Control mice were dosed with vehicle alone. Compound 6a reduced tumor volume by roughly 40% compared to control over 25 days (FIG. 8).

The subject of the next data set is cyclin D1. The experiment in a line: RT-PCR of cyclin D1 mRNA in treated PC-3 cells. Particulars: 5 μM, 24 hours. Format: cell-based, human. Here is the method:
Representative photograph of an experiment repeated thrice. PC-3 cells were treated 24 hours with either 15 μM for compounds 6, 7, 7a, 8, 9, 10 or 5 μM for compound KED-4-69 (compound 6a) before RNA extraction and RT-PCR amplification.
Reverse Transcriptase-polymerase Chain Reaction (RT-PCR). From PC-3 cells incubated 24 hours with either 15 μM of compound 6, 7, 7a, 8, 9, 10 or 5 μM of KED-4-69 (compound 6a), RNA was extracted with TRIzol solution (Invitrogen, Carlsbad, Calif.) and genes of interest were amplified using 500 ng of total RNA reverse-transcribed to cDNA using a Superscript II kit (Invitrogen) with random hexamers. Human-specific primers were designed using the Primer Quest program and purchased from Integrated DNA Technologies, Inc. (Coralville, Iowa). Their sequences and product band sizes are: cyclin D1 forward primer 5′-[…]-3′ (SEQ ID NO:1), cyclin D1 reverse primer 5′-[…]-3′ (SEQ ID NO:2) (475 bp) and GAPDH forward primer: 5′-CCA […]-3′ (SEQ ID NO:3), GAPDH reverse primer: 5′-TCTAGACGGCAG GTCAGGTCCACC-3′ (SEQ ID NO:4) (598 bp). PCRs were initiated at 94° C. for 2 min, followed by 28 cycles of 94° C. for 1 min, 1 min annealing temperature, 72° C. for 1 min, and final extension at 72° C. for 5 min. The annealing temperature for cyclin D1 and GAPDH was 60° C. Primers and PCR conditions for RASSF1A are used as described by Rong et al. (Oncogene. 2004, 23, 8216-8230). After amplification, PCR products were separated on 1.5% agarose gels and visualized by ethidium bromide fluorescence using the Fuji LAS-1000 Imager. Images were captured and imported to Adobe Photoshop. Band intensities were quantified by using ImageJ software (NIH, Bethesda, Md.).
It has been reported that mRNA levels of RASSF1A correlate to its protein expression levels (Rong et al. Oncogene, 2004, 23: 8216-8230). To investigate the effects of the synthetic compounds on RASSF1A and cyclin D1 expression, levels of the respective mRNAs in treated cells compared to control were analyzed (FIG. 3). […] Because overexpression of cyclin D1 is associated with tumorigenicity and proliferation in a variety of tumors, including prostate cancers, this downregulation provides a cancer treatment method (Chen, Y. et al. Oncogene. 1998, 16, 1913-1920; Musgrove, E. A. et al. Proc. Natl. Acad. Sci. USA. 1994, 91, 8022-8026).

`COc1ccc2c(c1)[nH]c1c(C)c(OS(=O)(=O)c3cccc4c(N(C)C)cccc34)ccc12` [Compound 6a, 7-Methoxy-1-methyl-9H-carbazol-2-yl 5-(dimethylamino)naphthalene-1-sulfonate] gave a therapeutic index in the data set with wild-type Balb/c mice (550 mg/kg without toxicity versus starting efficacy dose of 10 mg/kg) greater than 55. Further, in the data set on wild-type Balb/c mice (wild-type Balb/c mice dosed up to 550 mg/kg, oral), the acute oral toxicity result is recorded as “no toxicity was observed”. Besides, the “cyclin D1 mRNA level versus control” value in the data set with cyclin D1 is “corresponding decrease in cyclin D1”.
